Results from US20260098017A1, “NOVEL AROMATIC RING DERIVATIVE CONTAINING AMIDE SUBSTITUTION AND USE THEREOF” (TIANJIN PHARMACEUTICAL BIOTECHNOLOGY CO., LTD., priority 2022, published 2026).

What was measured:
[1] = test system: mouse asthma model induced by OVA; experiment: Mouse asthma model induced by OVA: airway hyperresponsiveness (Penh); type: in vivo; conditions: for Enhanced pause (Penh) value: 2 mg/mL, 50 μL endotracheally, once daily for 3 days
Protocol: The efficacy of the compounds according to the present invention in a mouse asthma model induced by OVA could be assessed using the following method:
Test sample: the compound of Example 3 was weighed accurately, and dissolved in DMSO to prepare a solution at a concentration of 2 mg/mL.
30 female BALB/c mice were adaptively fed. After one week, 10 mice were randomly taken out and fed as a blank control group, and 20 mice were selected to establish the asthma model. The model mice were intraperitoneally injected with 0.2 mL of sensitizing solution for sensitization respectively on 0, 7 and 14 days. The sensitization solution contained 50 μg of OVA and 2 mg of Al(OH)3. The blank control group received an equivalent volume of physiological saline.
From day 21 to day 23 after sensitization, the mice in the model group and the administration group were subjected to nebulization stimulation with 5% OVA for 30 min, and the mice in the blank control group received nebulization with physiological saline for the same duration.
30 min before daily stimulation of the mice, 50 μl of physiological saline was administered endotracheally to mice in the blank control and model groups, and 50 μl of the corresponding drug was administered endotracheally to mice in the Example 3 compound group, once daily for 3 consecutive days.
Airway hyperresponsiveness was measured in each group of mice after the last stimulation. The mice were placed in a whole-body plethysmograph. After recording the baseline values of enhanced pause (Penh), the mice were stimulated by nebulized methacholine, wherein the concentrations of the methacholine were 0, 6.25 and 12.5 mg/mL from low to high, the nebulization volume was 100 μL per dose for 60 s.
Statistical analysis was conducted using SPSS software, Measurement data were expressed as mean±standard deviation. One Way ANOVA was used for inter-group comparisons, LSD test was used for those with homogeneous variance, and Dunnett-t test was used for those with heterogeneous variance. Differences were statistically significant with P<0.05.

[2] = target: T1, TYK2 JH1 kinase (Homo sapiens, UniProt P29597); experiment: TYK2 JH1 enzyme assay in vitro (TR-FRET); type: biochemical
T1 sequence (P29597 897-1176 limits assumed): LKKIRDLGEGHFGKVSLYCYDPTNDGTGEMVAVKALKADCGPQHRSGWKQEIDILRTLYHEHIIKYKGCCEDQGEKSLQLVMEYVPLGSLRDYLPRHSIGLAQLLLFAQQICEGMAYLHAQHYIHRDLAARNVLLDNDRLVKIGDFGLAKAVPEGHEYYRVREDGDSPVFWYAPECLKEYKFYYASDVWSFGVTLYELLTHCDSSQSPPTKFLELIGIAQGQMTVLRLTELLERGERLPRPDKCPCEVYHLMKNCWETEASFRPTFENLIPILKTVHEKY

[3] = target: JAK1 JH1 kinase (Homo sapiens, UniProt P23458); experiment: JAK1 JH1 enzyme assay in vitro (TR-FRET); type: biochemical; conditions: read-out: JAK 1 JH1 IC50
[4] = target: T2, hERG channel (Homo sapiens, UniProt Q12809); experiment: hERG potassium channel inhibition assay (manual patch clamp); type: cell-based; conditions: HEK-293 cell line stably expressing hERG channel, at the tested concentrations
T2 construct: expressed in transfected cells; host or cells: HEK-293
Protocol: Instrumentation: HEKA EPC 10 patch clamp amplifier.
Method: in this experiment, the blocking effect of the compounds on the current of the HEK-293 cell line stably expressing hERG channel was measured using the manual patch clamp technique, and the risk of the compounds on the inhibition of cardiac hERG potassium channel was assessed by fitting the concentration effect relationship.
Procedure: in the patch clamp operation, firstly, a capillary glass tube was pulled into a recording electrode using a microelectrode puller, then an electrode filled with intracellular solution was mounted into a microelectrode holder. A microelectrode manipulator was operated under an inverted microscope to immerse the electrode into an extracellular solution and the electrode resistance (Rpip) was recorded. Then, the electrode was slowly brought into contact with the cell surface, and a negative pressure was applied for suction to form a GΩ seal. At this point, a fast capacitance compensation was performed, and a negative pressure was continuously applied to suck and break the cell membrane to form a whole cell recording mode. Finally, a slow capacitance compensation was performed and experimental parameters including series resistance (Rs) and the like were recorded. No leakage compensation was performed. When the hERG current recorded by the whole cell was stable, the administration of drugs commenced, and each drug concentration acted for about 5 min (or until the current stabilization) before detecting the next concentration. A cover glass covered with cells was placed in a recording bath under an inverted microscope, the blank control extracellular solution and the working solution of the compounds to be tested sequentially flowed through the recording bath from low concentration to high concentration by using gravity perfusion to act on the cells, and solution exchange was performed using a peristaltic pump during recording. The current measured by each cell in the extracellular solution without the compound served as its own control group. Each concentration was independently assessed twice. All electrophysiological tests were performed at room temperature.
Data Analysis: firstly, the tail current (Peak tail currentcompound) after the action of each drug concentration and the blank control tail current (Peak tail currentcontrol) were normalized, then the inhibition rate
corresponding to each drug concentration was calculated, and the mean (Mean), standard deviation (SD) and standard error (SE) of the inhibition rate corresponding to each concentration were calculated, with data expressed as Mean±SE. The calculation of IC50 value and the fitting of dose-response curve for the compound were performed using GraphPad Prism software.

[5] = target: TYK2 JH2 pseudokinase (Homo sapiens, UniProt P29597); experiment: TYK2 JH2 enzyme binding assay in vitro (TR-FRET)
Protocol: Instrumentation: Envision microplate reader (PerkinElmer), ECHO550 (LABCYTE).
Method: the inhibitory effects of compounds on TYK2 JH2 pseudokinase was tested using time-resolved fluorescence resonance energy transfer (TR-FRET) method.
Procedure: compounds were prepared into 10 mM stock solutions using DMSO, which were further diluted into compound dilutions (200×) with different concentration gradients in DMSO, and the compound dilutions (200×) were transferred to a 384-well assay plate using an Echo instrument. […] TYK2 JH2 pseudokinase, Tb antibody, and Tracer working solutions were prepared using the dilution buffer, respectively. 5 uL of TYK2 JH2 pseudokinase working solution (final concentration 0.5 nM) was added to a 384-well assay plate, and centrifuged at 1000 rpm for 30 s. 5 uL of Tb antibody (final concentration 1×) was added to the 384-well assay plate, and centrifuged at 1000 rpm for 30 s. 5 uL of Tracer (final concentration 0.5 nM) was added to the 384-well assay plate, and centrifuged at 1000 rpm for 30 s. Incubation was performed at room temperature for 60 min, and then at 4° C. overnight.
Data Analysis: XLfit, a software developed by IDBS and integrated into the Microsoft Excel environment, was used to process and analyze the test data.

T2 sequence (Q12809 whole entry): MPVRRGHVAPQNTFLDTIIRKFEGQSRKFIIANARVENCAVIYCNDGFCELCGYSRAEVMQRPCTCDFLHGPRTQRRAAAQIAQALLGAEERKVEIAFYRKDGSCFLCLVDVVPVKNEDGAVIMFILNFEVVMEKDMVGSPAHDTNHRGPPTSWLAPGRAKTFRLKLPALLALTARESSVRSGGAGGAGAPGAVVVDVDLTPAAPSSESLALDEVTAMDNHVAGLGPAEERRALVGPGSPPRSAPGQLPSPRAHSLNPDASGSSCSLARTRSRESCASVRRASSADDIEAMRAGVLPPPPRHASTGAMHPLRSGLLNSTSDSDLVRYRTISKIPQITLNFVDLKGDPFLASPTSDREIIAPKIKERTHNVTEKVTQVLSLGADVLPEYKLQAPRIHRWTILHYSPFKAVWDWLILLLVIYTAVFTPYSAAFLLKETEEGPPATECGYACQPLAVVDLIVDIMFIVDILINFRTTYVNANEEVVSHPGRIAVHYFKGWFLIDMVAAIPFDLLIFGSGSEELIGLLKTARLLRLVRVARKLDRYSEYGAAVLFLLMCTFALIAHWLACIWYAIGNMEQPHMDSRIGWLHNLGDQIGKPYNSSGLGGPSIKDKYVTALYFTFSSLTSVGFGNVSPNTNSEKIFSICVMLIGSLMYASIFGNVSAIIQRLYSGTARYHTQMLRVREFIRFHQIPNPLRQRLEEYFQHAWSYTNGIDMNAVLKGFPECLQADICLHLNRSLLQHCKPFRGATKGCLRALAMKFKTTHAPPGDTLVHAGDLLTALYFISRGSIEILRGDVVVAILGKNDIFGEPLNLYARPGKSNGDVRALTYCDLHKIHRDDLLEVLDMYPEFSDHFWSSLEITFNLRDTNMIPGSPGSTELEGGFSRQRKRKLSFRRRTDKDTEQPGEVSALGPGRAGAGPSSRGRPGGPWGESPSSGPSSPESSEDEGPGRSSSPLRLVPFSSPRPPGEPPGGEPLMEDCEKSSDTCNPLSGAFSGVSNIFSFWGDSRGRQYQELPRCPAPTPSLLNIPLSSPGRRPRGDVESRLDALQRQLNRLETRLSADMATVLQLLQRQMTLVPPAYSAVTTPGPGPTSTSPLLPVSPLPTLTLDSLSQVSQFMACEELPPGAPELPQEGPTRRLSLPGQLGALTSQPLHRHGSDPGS
JAK1 JH1 kinase, sequence (P23458 875-1153 limits assumed): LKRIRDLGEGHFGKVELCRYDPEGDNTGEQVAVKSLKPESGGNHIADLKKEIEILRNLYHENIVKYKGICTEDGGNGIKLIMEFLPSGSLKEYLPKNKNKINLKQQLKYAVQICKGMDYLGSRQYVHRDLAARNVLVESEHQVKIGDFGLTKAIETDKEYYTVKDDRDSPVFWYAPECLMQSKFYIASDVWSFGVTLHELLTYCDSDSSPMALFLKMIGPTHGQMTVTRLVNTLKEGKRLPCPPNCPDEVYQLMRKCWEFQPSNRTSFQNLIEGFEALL
TYK2 JH2 pseudokinase, sequence (P29597 589-875 limits assumed): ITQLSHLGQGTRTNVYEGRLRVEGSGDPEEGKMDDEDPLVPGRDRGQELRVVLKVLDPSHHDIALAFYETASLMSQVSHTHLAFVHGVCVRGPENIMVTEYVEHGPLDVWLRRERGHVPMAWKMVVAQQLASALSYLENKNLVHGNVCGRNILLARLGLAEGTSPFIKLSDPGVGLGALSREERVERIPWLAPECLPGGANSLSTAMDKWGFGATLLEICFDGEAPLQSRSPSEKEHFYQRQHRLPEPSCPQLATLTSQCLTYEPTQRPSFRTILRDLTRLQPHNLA

`[2H]C([2H])([2H])NC(=O)c1nnc(NC(=O)C2CC2)cc1Nc1cccc(C(=O)Nc2cccc(C)c2)c1OC` [Example 3] was tested, and the “Effect on enhanced pause (Penh) values compared to the model group” value ([1]; administration before stimulation, P<0.05) was “significantly reduce”, the “Enhanced pause (Penh) value” ([1]; methacholine 0 mg/mL) was 0.86 ± 0.31 and the “Enhanced pause (Penh) value” ([1]; methacholine 6.25 mg/mL) was 1.79 ± 0.45. For the same compound, the “Enhanced pause (Penh) value” ([1]; methacholine 12.5 mg/mL) was 2.94 ± 0.66, the IC50 [2] was over 10 µM and the IC50 [3] was over 10 µM. The hERG inhibition [4] was “no significant inhibition” and the IC50 [5] was 0.000274 µM.
